Measured values from US20100298141A1, “SUBSTITUTED PYRIDINE N-OXIDE HERBICIDES” (E. I. DU PONT DE NEMOURS AND COMPANY, priority 2007, published 2010).

How the values were obtained:
morningglory = experiment: Test C pre-/postemergence test; format: in vivo, Ipomoea coccinea
Outline: (§1)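 Test chemicals were formulated with surfactant in a non-phytotoxic solvent and sprayed both on freshly planted seeds (preemergence) and on 1- to 4-leaf plants of 2–18 cm (postemergence). Flooded-paddy pots received compound directly into 3 cm of standing water, maintained for the test.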

rice = experiment: Test C flooded paddy test; format: in vivo, Oryza sativa; details: Flood
Outline: (§2)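 Flooded 3 cm over soil; compound into paddy water; depth kept constant. Greenhouse 13–15 d.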

giant foxtail = experiment: Test C pre-/postemergence test; format: in vivo, Setaria faberii
Outline: as §1

wheat [1] = experiment: Test C pre-/postemergence test; format: in vivo, Triticum aestivum
Outline: as §1

johnsongrass = experiment: Test C pre-/postemergence test; format: in vivo, Sorghum halepense
Outline: as §1

downy brome = experiment: Test C pre-/postemergence test; format: in vivo, Bromus tectorum
Outline: as §1

redroot pigweed = experiment: Test A pre-/postemergence greenhouse test; format: in vivo, Amaranthus retroflexus; details: for Pigweed plant response rating: 0 to 100 scale; for Plant response rating, Pigweed: 0 to 100 scale where 0 is no effect and 100 is complete control
Outline: (§3)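 Herbicidal effect is a visual injury score given about ten days post-treatment by comparison with untreated controls. Preemergence plots received a directed spray onto sown loam–sand soil; postemergence plants, at the one- to two-leaf stage and 2–10 cm tall, were sprayed at the same time.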

velvetleaf [2] = experiment: Test A pre-/postemergence greenhouse test; format: in vivo, Abutilon theophrasti; details: for Velvetleaf plant response rating: 0 to 100 scale; for Plant response rating, Velvetleaf: 0 to 100 scale where 0 is no effect and 100 is complete control
Outline: as §3

woolly cupgrass = experiment: Test C pre-/postemergence test; format: in vivo, Eriochloa villosa
Outline: as §1

wheat [3] = experiment: Test A pre-/postemergence greenhouse test; format: in vivo, Triticum aestivum; details: for Wheat plant response rating: 0 to 100 scale; for Plant response rating, Wheat: 0 to 100 scale where 0 is no effect and 100 is complete control
Outline: as §3

yellow nutsedge = experiment: Test C pre-/postemergence test; format: in vivo, Cyperus esculentus
Outline: as §1

catchweed bedstraw = experiment: Test C pre-/postemergence test; format: in vivo, Galium aparine
Outline: as §1

velvetleaf [4] = experiment: Test C pre-/postemergence test; format: in vivo, Abutilon theophrasti
Outline: as §1

corn = experiment: Test C pre-/postemergence test; format: in vivo, Zea mays
Outline: as §1

eastern black nightshade = experiment: Test C pre-/postemergence test; format: in vivo, Solanum ptycanthum
Outline: as §1

wild oat = experiment: Test C pre-/postemergence test; format: in vivo, Avena fatua
Outline: as §1

duck salad = experiment: Test C flooded paddy test; format: in vivo, Heteranthera limosa; details: Flood
Outline: as §2

[5] = 31 g ai/ha, Preemergence, scale 0 to 100
[6] = 62 g ai/ha, preemergence, scale 0 (no effect) to 100 (complete control)
[7] = preemergence, 125 g ai/ha, scale 0 (no effect) to 100 (complete control)
[8] = 31 g ai/ha, scale 0 to 100 (0 no effect, 100 complete control)
[9] = 62 g ai/ha, scale 0 to 100, 0 no effect, 100 complete control, 13 to 15 days
[10] = 125 g ai/ha, scale 0 to 100, 0 no effect, 100 complete control, 13 to 15 days
[11] = 250 g ai/ha, scale 0 to 100 (0 no effect, 100 complete control)
[12] = Postemergence, 125 g ai/ha, 0 is no effect, 100 is complete control
[13] = Postemergence, 500 g ai/ha, 0 is no effect, 100 is complete control
[14] = Preemergence, 125 g ai/ha, 0 no effect, 100 complete control
[15] = 62 g ai/ha, Preemergence, scale 0 to 100
[16] = 125 g ai/ha, preemergence, scale 0 (no effect) to 100 (complete control)
[17] = Preemergence, 31 g ai/ha, scale 0 to 100 (0 no effect, 100 complete control)
[18] = preemergence, 250 g ai/ha, scale 0 (no effect) to 100 (complete control)
[19] = 62 g ai/ha, scale 0 to 100 (0 no effect, 100 complete control)
[20] = 250 g ai/ha, scale 0 to 100, 0 no effect, 100 complete control, 13 to 15 days
[21] = Preemergence, 500 g ai/ha, 0 no effect, 100 complete control

SMILES: Cn1nc(C(F)(F)F)c(CS(=O)(=O)c2ccc(Cl)c[n+]2[O-])c1OC(F)F [Compound 7]
- Morningglory plant response rating (morningglory; [5]): 0
- Morningglory plant response rating (morningglory; [6]): 0
- Plant response rating (0 to 100), Morningglory (morningglory; Preemergence, 250 g ai/ha): 0
- Morningglory plant response rating (morningglory; [7]): 0
- Plant response rating, Rice (rice; [8]): 0
- Plant response rating, Rice (rice; [9]): 0
- Plant response rating, Rice (rice; [10]): 15
- Plant response rating, Rice (rice; [11]): 15
- Foxtail, Giant plant response rating (giant foxtail; [5]): 50
- Foxtail, Giant plant response rating (giant foxtail; [6]): 50
- Plant response rating (0 to 100), Foxtail, Giant (giant foxtail; Preemergence, 250 g ai/ha): 100
- Foxtail, Giant plant response rating (giant foxtail; [7]): 80
- Wheat plant response rating (wheat [1]; [6]): 10
- Plant response rating (0 to 100), Wheat (wheat [1]; Preemergence, 250 g ai/ha): 30
- Wheat plant response rating (wheat [1]; [7]): 20
- Johnsongrass plant response rating (johnsongrass; [5]): 90
- Johnsongrass plant response rating (johnsongrass; [6]): 100
- Plant response rating (0 to 100), Johnsongrass (johnsongrass; Preemergence, 250 g ai/ha): 100
- Johnsongrass plant response rating (johnsongrass; [7]): 100
- Bromegrass, Downy plant response rating (downy brome; [5]): 0
- Bromegrass, Downy plant response rating (downy brome; [6]): 0
- Plant response rating (0 to 100), Bromegrass, Downy (downy brome; Preemergence, 250 g ai/ha): 0
- Bromegrass, Downy plant response rating (downy brome; [7]): 0
- Pigweed plant response rating (redroot pigweed; [12]): 60
- Pigweed plant response rating (redroot pigweed; [13]): 70
- Pigweed plant response rating (redroot pigweed; [14]): 100
- Plant response rating, Pigweed (redroot pigweed; Preemergence, 500 g ai/ha): 100
- Velvetleaf plant response rating (velvetleaf [2]; [12]): 0
- Velvetleaf plant response rating (velvetleaf [2]; [13]): 20
- Plant response rating, Velvetleaf (velvetleaf [2]; Preemergence, 500 g ai/ha): 30
- Cupgrass, Woolly plant response rating (woolly cupgrass; [5]): 50
- Cupgrass, Woolly plant response rating (woolly cupgrass; [6]): 70
- Plant response rating (0 to 100), Cupgrass, Woolly (woolly cupgrass; Preemergence, 250 g ai/ha): 100
- Cupgrass, Woolly plant response rating (woolly cupgrass; [7]): 98
- Wheat plant response rating (wheat [3]; [12]): 0
- Wheat plant response rating (wheat [3]; [13]): 20
- Wheat plant response rating (wheat [3]; [14]): 20
- Plant response rating, Wheat (wheat [3]; Preemergence, 500 g ai/ha): 50
- Nutsedge, Yellow plant response rating (yellow nutsedge; [5]): 0
- Nutsedge, Yellow plant response rating (yellow nutsedge; [6]): 0
- Plant response rating (0 to 100), Nutsedge, Yellow (yellow nutsedge; Preemergence, 250 g ai/ha): 100
- Nutsedge, Yellow plant response rating (yellow nutsedge; [7]): 98
- Galium plant response rating (catchweed bedstraw; [5]): 40
- Galium plant response rating (catchweed bedstraw; [6]): 85
- Plant response rating (0 to 100), Galium (catchweed bedstraw; Preemergence, 250 g ai/ha): 95
- Galium plant response rating (catchweed bedstraw; [7]): 90
- Velvetleaf plant response rating (velvetleaf [4]; [6]): 0
- Plant response rating (0 to 100), Velvetleaf (velvetleaf [4]; Preemergence, 250 g ai/ha): 0
- Velvetleaf plant response rating (velvetleaf [4]; [7]): 0
- Corn plant response rating (corn; [5]): 0
- Corn plant response rating (corn; [6]): 0
- Plant response rating (0 to 100), Corn (corn; Preemergence, 250 g ai/ha): 30
- Corn plant response rating (corn; [7]): 10
- Nightshade plant response rating (eastern black nightshade; [5]): 0
- Nightshade plant response rating (eastern black nightshade; [6]): 50
- Plant response rating (0 to 100), Nightshade (eastern black nightshade; Preemergence, 250 g ai/ha): 95
- Nightshade plant response rating (eastern black nightshade; [7]): 50
- Oat, Wild plant response rating (wild oat; [5]): 0
- Oat, Wild plant response rating (wild oat; [6]): 30
- Plant response rating (0 to 100), Oat, Wild (wild oat; Preemergence, 250 g ai/ha): 70
- Oat, Wild plant response rating (wild oat; [7]): 40
- Plant response rating, Ducksalad (duck salad; [8]): 30
- Plant response rating, Ducksalad (duck salad; [9]): 50
- Plant response rating, Ducksalad (duck salad; [10]): 75
- Plant response rating, Ducksalad (duck salad; [11]): 80

SMILES: Cc1cc[n+]([O-])c(S(=O)(=O)Cc2c(C(F)(F)F)nn(C)c2OC(C)C(F)(F)F)c1 (centres unmarked) [Compound 96]
- Morningglory plant response rating (morningglory; [15]): 70
- Morningglory plant response rating (morningglory; [16]): 95
- Plant response rating, Morningglory (morningglory; [17]): 0
- Morningglory plant response rating (morningglory; [18]): 100
- Plant response rating, Rice (rice; [19]): 0
- Plant response rating, Rice (rice; [20]): 20
- Foxtail, Giant plant response rating (giant foxtail; [15]): 80
- Foxtail, Giant plant response rating (giant foxtail; [16]): 95
- Plant response rating, Foxtail, Giant (giant foxtail; [17]): 80
- Foxtail, Giant plant response rating (giant foxtail; [18]): 98
- Wheat plant response rating (wheat [1]; [15]): 0
- Wheat plant response rating (wheat [1]; [16]): 45
- Plant response rating, Wheat (wheat [1]; [17]): 0
- Wheat plant response rating (wheat [1]; [18]): 45
- Johnsongrass plant response rating (johnsongrass; [15]): 95
- Johnsongrass plant response rating (johnsongrass; [16]): 100
- Plant response rating, Johnsongrass (johnsongrass; [17]): 70
- Johnsongrass plant response rating (johnsongrass; [18]): 100
- Bromegrass, Downy plant response rating (downy brome; [15]): 50
- Plant response rating, Bromegrass, Downy (downy brome; [17]): 50
- Bromegrass, Downy plant response rating (downy brome; [18]): 55
- Plant response rating, Pigweed (redroot pigweed; Postemergence, 125 g ai/ha): 30
- Pigweed plant response rating (redroot pigweed; [13]): 80
- Pigweed plant response rating (redroot pigweed; [14]): 90
- Plant response rating, Pigweed (redroot pigweed; Preemergence, 500 g ai/ha): 90
- Plant response rating, Velvetleaf (velvetleaf [2]; Postemergence, 125 g ai/ha): 50
- Velvetleaf plant response rating (velvetleaf [2]; [13]): 60
- Velvetleaf plant response rating (velvetleaf [2]; [14]): 40
- Velvetleaf plant response rating (velvetleaf [2]; [21]): 100
- Cupgrass, Woolly plant response rating (woolly cupgrass; [15]): 70
- Cupgrass, Woolly plant response rating (woolly cupgrass; [16]): 95
- Plant response rating, Cupgrass, Woolly (woolly cupgrass; [17]): 50
- Cupgrass, Woolly plant response rating (woolly cupgrass; [18]): 98
- Plant response rating, Wheat (wheat [3]; Postemergence, 125 g ai/ha): 50
- Wheat plant response rating (wheat [3]; [13]): 70
- Wheat plant response rating (wheat [3]; [14]): 20
- Wheat plant response rating (wheat [3]; [21]): 80
- Nutsedge, Yellow plant response rating (yellow nutsedge; [15]): 80
- Nutsedge, Yellow plant response rating (yellow nutsedge; [16]): 95
- Plant response rating, Nutsedge, Yellow (yellow nutsedge; [17]): 40
- Nutsedge, Yellow plant response rating (yellow nutsedge; [18]): 95
- Galium plant response rating (catchweed bedstraw; [15]): 80
- Galium plant response rating (catchweed bedstraw; [16]): 98
- Plant response rating, Galium (catchweed bedstraw; [17]): 0
- Galium plant response rating (catchweed bedstraw; [18]): 100
- Velvetleaf plant response rating (velvetleaf [4]; [15]): 30
- Velvetleaf plant response rating (velvetleaf [4]; [16]): 40
- Plant response rating, Velvetleaf (velvetleaf [4]; [17]): 0
- Velvetleaf plant response rating (velvetleaf [4]; [18]): 90
- Corn plant response rating (corn; [15]): 0
- Corn plant response rating (corn; [16]): 35
- Plant response rating, Corn (corn; [17]): 0
- Corn plant response rating (corn; [18]): 60
- Nightshade plant response rating (eastern black nightshade; [15]): 85
- Nightshade plant response rating (eastern black nightshade; [16]): 95
- Plant response rating, Nightshade (eastern black nightshade; [17]): 75
- Nightshade plant response rating (eastern black nightshade; [18]): 100
- Oat, Wild plant response rating (wild oat; [15]): 80
- Oat, Wild plant response rating (wild oat; [16]): 95
- Plant response rating, Oat, Wild (wild oat; [17]): 70
- Oat, Wild plant response rating (wild oat; [18]): 98
- Plant response rating, Ducksalad (duck salad; [19]): 0
- Plant response rating, Ducksalad (duck salad; [20]): 55
